According to patent US20250268948A1, “COMPOSITIONS AND METHODS FOR TREATING POST ACUTE SEQUELAE OF SARS-COV-2 INFECTION (LONG COVID)” (priority 2022, published 2025):
Where two headings read alike, the source gives them in different places.

How the values were obtained:
human MSCs = assay: Stem cell migration assay (percent closure of cell-free zone); conditions: for effect on MSC migration induced by curcumin and quercetin / effect on MSC migration induced by curcumin and resveratrol: 20 micromolar AMD3100 / 15 micromolar GM6001; for effect on MSC migration induced by curcumin and quercetin: FIG. 14; for effect on MSC migration induced by curcumin and resveratrol: FIG. 15; for EC50: Homo sapiens
Experimental: FIG. 1 is a microphotograph depicting cell migration using fluorescent readout and cell tracker green as a fluorescent marker of human UC-MSCs. […] The EC50 was determined as a measure of effectiveness of activating agents. […] An initial analysis of the cell free zone using Image J software was used to screen concentrations of activating agents for dose-response determination in further experiments.
The cell migration assays described above were set up as follows: One million cells/cell line were resuspended in 10 mL MSC-GRO™ serum free, quiescent medium (Vitro Biopharma Cat. No. SC00B17) containing […] mitomycin C (Sigma, Cat. No. M4287) to inhibit proliferation and incubated for 2 hours at room temperature with end-to-end agitation at 7 RPM. In some experiments, curcumin was used at 1 μM to block proliferation. Cells were centrifuged (450×g) for 7 minutes, washed with phosphate buffered saline (PBS) and then resuspended in 1 mL MSC-GRO™ low serum, complete 20 medium (Vitro Biopharma Cat. No. SC00B1) and plated at 25,000 cells/well in black 96 well, TC-coated cell culture plates, (ThermoScientific, Cat. No. 165305) containing cell seed-stoppers (Platypus, Cat. No. CMAUFL4) to form a cell free zone at the center of the well and incubated in 5% CO2, 1% O2, 94% N2 at 37° C. in a humidified chamber for 24 hrs. Plates used for culture of NSCs, were first treated with 10 μg/mL fibronectin (Sigma, Cat. No. F0556) for 2 hours at 37° C. Following washout with PBS (3×), cell seed stoppers were inserted, NSCs were plated at 25,000/well and incubated in 5% CO2, 1% O2, 94% N2 at 37° C. in a humidified chamber for 48 hrs. For studies of the effects of CXCR4 and MMP-9 inhibition, following 24 hours of cell culture, appropriate wells were dosed with 15 μM GM6001 and 20 μM AMD3100 for 6 hours. Cells were washed once with PBS then incubated in serum free, MSC-GRO™ (Vitro Biopharma Cat. No. SC00B17) containing 5 μM Cell Tracker Green CMFDA (Molecular Probes, Cat. No. C7025) at 37° C. for 30 minutes. The wells were then washed with serum free, MSC-Gro™ (Vitro Biopharma Cat. No. SC00B17) and incubated for 30 minutes at 37° C. Cells were washed once with PBS and this was replaced with MSC-GRO™ serum free, quiescent medium (Vitro Biopharma Cat. No. SC00B1I7) containing different concentrations of activating agents. […] A TOPSEAL™ (PerkinElmer, Cat. No. 6050195) covered the plate for live-cell imaging in a BioTek Cytation3 Imaging Reader. […] The gas phase throughout the acquisition of kinetic data was 5% O2, 5% CO2 with the balance nitrogen maintained by a BioTek CO2/O2 gas controller. Images were saved as TIFF files to calculate percent closure using imaging data.

Hsp70 = assay: qPCR gene expression analysis in human MSCs; type: cell-based; conditions: for Hsp70 expression increase: 250 μM VPA, 500 nM curcumin, up to 2 weeks, FIG. 13
Experimental: (§1) Gene expression was quantified by determining the amount of gene-specific DNA/total cDNA. Data are mean+/−S.D. of 4 replicates.
(§2) Native human umbilical cord-derived MSCs (Vitro Biopharma Cat. No. SCOOA1) were expanded from cryopreservation in a T-25 TC-coated flasks (BD Falcon, Cat. No. 353108) in MSC-GRO™ low serum, complete medium (Vitro Biopharma Cat. No. SC00B1). Cells were subcultured and counted on a Beckerman-Coulter Z2 particle counter (range 10 μm-30 μm). […] The MSCs were treated continuously for up to 2 weeks. Cultures were fed every three days. Cells were harvested using ACCUTASE™ (Innovative Cell Technologies Inc., Cat No AT-104) and centrifuged (450×g) for 7 minutes. Cell supernatant was aspirated off and cells were resuspended in 1 mL PBS and counted on a Beckerman-Coulter Z2 particle counter (range 10 μm-30 μm).
(§3) Total RNA was extracted using RNeasy Mini Kit (Qiagen Cat. No. 74104). RNA was quantified using an absorbance measurement at 260 nm. RNA was converted to cDNA using Quantitect Reverse Transcription Kit (Qiagen Cat. No. 205310) in a thermocycler. RNA was incubated in the DNA elimination reaction for 2 minutes at 42° C. then incubated in the reverse-transcription master mix for 15 minutes at 42° C. Immediately after, it was incubated at 95° C. for 3 minutes for inactivation. cDNA was sent to an outside lab (CU-Anschutz Metabolic Laboratory) for q-PCR to detect relative or absolute gene expression levels. cDNA was diluted 1:5 and iTaq Universal Supermix fluorescent probe (BioRad Cat. No. 172-5120) used to detect the threshold cycle (Ct) during PCR. Dilution factors and cDNA concentrations were calculated into recorded values then normalized to untreated hMSCs (Vitro Biopharma Cat. No. SC00A1).

CXCR4 = assay: qPCR gene expression analysis in human MSCs; type: cell-based; conditions: for CXCR4 expression increase: 250 μM VPA, 500 nM curcumin, up to 2 weeks, FIG. 13
Experimental: as §1, §2, §3

SIRT-1 = assay: qPCR gene expression analysis in human MSCs; type: cell-based; conditions: up to 2 weeks; for SIRT-1 expression increase: 250 μM VPA, 500 nM curcumin, FIG. 13
Experimental: (§4) Beta actin was measured as a house-keeping gene. […] Gene expression was quantified by determining the amount of gene-specific DNA/total cDNA. Data are mean+/−SD of 4 replicates.
(§5) Native human umbilical cord-derived MSCs (Vitro Biopharma Cat. No. SC00A1) were expanded from cryopreservation in a T-25 TC-coated flasks (BD Falcon, Cat. No. 353108) in MSC-GRO™ low serum, complete medium (Vitro Biopharma Cat. No. SC00BI). Cells were subcultured and counted on a Beckerman-Coulter Z2 particle counter (range 10 μm-30 μm). Cells were plated at 10,000/cm^2 a TC-coated Greiner Bio-One T75 flask and maintained in MSC-GRO™ serum free, complete medium (Vitro Biopharma Cat. No. SC00B3) in a reduced 02 environment (1% O2, 5% CO2, 94% N2) at 37° C. in a humidified chamber. The MSCs were treated continuously for up to 2 weeks. Cultures were fed every three days. Cells were harvested using ACCUTASE™ (Innovative Cell Technologies Inc., Cat No AT-104) and centrifuged (450×g) for 7 minutes. Cell supernatant was aspirated off and cells were resuspended in 1 mL PBS and counted on a Beckerman-Coulter Z2 particle counter (range 10 μm-30 μm). Total RNA was extracted using RNeasy Mini Kit (Qiagen Cat. No. 74104). RNA was quantified using an absorbance measurement at 260 nm. RNA was converted to cDNA using Quantitect Reverse Transcription Kit (Qiagen Cat. No. 205310) in a thermocycler. RNA was incubated in the gDNA elimination reaction for 2 minutes at 42° C. then incubated in the reverse-transcription master mix for 15 minutes at 42° C. Immediately after, it was incubated at 95° C. for 3 minutes for inactivation. cDNA was sent to an outside lab (CU-Anschutz Metabolic Laboratory) for q-PCR to detect relative or absolute gene expression levels. cDNA was diluted 1:5 and iTaq Universal Supermix fluorescent probe (BioRad Cat. No. 172-5120) used to detect the threshold cycle (Ct) during PCR. Dilution factors and cDNA concentrations were calculated into recorded values then normalized to untreated hMSCs (Vitro Biopharma Cat. No. SC00A1).
as §1, §2, §3

FGF-21 = assay: qPCR gene expression analysis in human MSCs; type: cell-based; conditions: for FGF-21 expression increase: 250 μM VPA, 500 nM curcumin, up to 2 weeks, FIG. 13
Experimental: as §4, §5, §1, §2, §3

Oct 3/4 = assay: qPCR gene expression analysis in human MSCs; type: cell-based; conditions: for Oct 3/4 expression increase: 250 μM VPA, 500 nM curcumin, compared to beta-actin, FIG. 13
Experimental: as §4, §5, §1, §2, §3

MSCs = assay: Cell-based proliferation assay (Presto Blue); conditions: Homo sapiens
Experimental: The effects of fibroblast growth factor 2 (FGF-2), lithium, and VPA on stem cell proliferation were then investigated, using an assay based on Presto Blue, a fluorescent marker of cellular reduction. FIG. 8 is a line graph representation illustrating proliferation of different cell lines induced by increasing concentrations of FGF-b (FGF-2) after a 5 day exposure. Relative fluorescent units were measured using a FITC filter on a Modulus Microplate Reader and plotted as a function of FGF-2. The data were modeled by sigmoidal curve fitting to calculate EC50 values. […] Proliferation of these mesenchymal cells was stimulated by recombinant human FGF-2 with EC50 values in the range of 3 ng/mL to 6 ng/mL with maximal proliferative responses at about 10 ng/mL.

human fibroblast = conditions: read-out: EC50, human fibroblast migration induced by substance P, prior study; suspension culture system; Parenti et al. 1996; cited from earlier work
[1] = curcumin at 500 nM, statistically significant

c1cc(CN2CCCNCCNCCCNCC2)ccc1CN1CCCNCCNCCCNCC1 [AMD3100]
effect on VPA-induced CB-MSC migration (human MSCs; 20 μM AMD3100, CXCR-4 inhibitor, FIG. 7): blocked the VPA-induced CB-MSC migration
effect on MSC migration induced by curcumin and quercetin (human MSCs): blocked MSC migration
effect on MSC migration induced by curcumin and resveratrol (human MSCs): blocked MSC migration

CNC(=O)[C@H](Cc1c[nH]c2ccccc12)NC(=O)[C@@H](CC(=O)NO)CC(C)C [GM6001]
effect on lithium induced CB-MSC migration (human MSCs; 15 μM GM6001, MMP-9 inhibitor, FIG. 7): blocked lithium induced CB-MSCs
effect on MSC migration induced by curcumin and quercetin (human MSCs): blocked MSC migration
effect on MSC migration induced by curcumin and resveratrol (human MSCs): blocked MSC migration

CCCC(=O)[O-].[Na+] [Na butyrate]
Hsp70 expression increase (Hsp70): lower levels
CXCR4 expression increase (CXCR4): lower levels
SIRT-1 expression increase (SIRT-1): significantly less effective
FGF-21 expression increase (FGF-21): lower levels
Oct 3/4 expression increase (Oct 3/4; up to 2 weeks): less expression activation

CC(/C=C/C(=O)NO)=C\[C@@H](C)C(=O)c1ccc(N(C)C)cc1 [TSA]
Hsp70 expression increase (Hsp70): lower levels
CXCR4 expression increase (CXCR4): lower levels
SIRT-1 expression increase (SIRT-1): significantly less effective
FGF-21 expression increase (FGF-21): lower levels
Oct 3/4 expression increase (Oct 3/4; up to 2 weeks): less expression activation

CCCC(CCC)C(=O)O [VPA, valproic acid]
EC50 (human MSCs; read-out: EC50, migration, increasing VPA in 200 μM lithium, MSCs, FIG. 6): 36 µM
concentration of maximum closure (human MSCs; VPA alone, FIG. 5): 100 µM
SIRT-1 expression increase vs untreated MSC (SIRT-1; 31.25 μM VPA, 200 μM lithium, FIG. 11): ~300 fold
Oct 3/4 expression increase vs untreated human MSCs (Oct 3/4; 31.25 μM VPA, 200 μM lithium, up to 2 weeks, FIG. 11): about 20 fold
Oct 3/4 expression increase (Oct 3/4; up to 2 weeks): about 20 fold
EC50 (MSCs; 120 h, increasing VPA in 200 μM lithium, MSCs, 5 day exposure, FIG. 10, read-out: EC50, proliferation): 39 µM
EC50 (MSCs; in the presence of 200 μM lithium, MSCs and NSCs, range over migration and proliferation assays, read-out: VPA concentration 50% effective in inducing cell proliferation and migration): 35 to 39 µM
EC50 (MSCs; in the presence of 200 μM lithium, MSCs and NSCs, read-out: VPA concentration 50% effective in inducing cell proliferation and migration, mean): 37 µM

COc1cc(/C=C/C(=O)CC(=O)/C=C/c2ccc(O)c(OC)c2)ccc1O [curcumin]
Hsp70 expression increase compared to untreated cells (Hsp70; [1]): at least 20 fold
CXCR-4 expression increase compared to untreated cells (CXCR4; [1]): at least 20 fold
concentration at which curcumin blocked migration by apparent toxicity (human MSCs; 36-hour run, FIG. 4): greater than 1 μM
estimated LD50 (apparent toxicity, reduced cell number) (human MSCs; 36-hour run, FIG. 4): 3 µM
EC50 (human MSCs; 36 h, read-out: apparent EC50, curcumin-induced migration): 0.25 µM
FGF-21 expression increase compared to untreated cells (FGF-21; [1]): at least 20 fold
Oct 3/4 expression increase (Oct 3/4; up to 2 weeks): about 20 fold
Oct 3/4 expression increase compared to untreated cells (Oct 3/4; [1]): at least 10 fold

CSCC[C@H](NC(=O)[C@H](CC(C)C)NC(=O)CNC(=O)[C@H](Cc1ccccc1)NC(=O)[C@H](Cc1ccccc1)NC(=O)[C@H](CCC(N)=O)NC(=O)[C@H](CCC(N)=O)NC(=O)[C@@H]1CCCN1C(=O)[C@H](CCCCN)NC(=O)[C@@H]1CCCN1C(=O)[C@@H](N)CCCNC(=N)N)C(N)=O [substance P]
EC50 (human fibroblast): 0.0022 µM
MSC migration into cell-free zone (human MSCs; 3.7 nM substance P, 24 hours, human UC-MSCs, FIG. 1): induced MSC migration into the cell-free center of the well
migration (percent closure) dose-response (human MSCs; CB-MSCs, 0 to 18.5 nM, 24-hour live cell analysis, FIG. 2): migration increased in a dose-dependent manner

CCCCC(=O)O [valeric acid]
Hsp70 expression increase (Hsp70): lower levels
CXCR4 expression increase (CXCR4): lower levels
SIRT-1 expression increase (SIRT-1): significantly less effective
FGF-21 expression increase (FGF-21): lower levels
Oct 3/4 expression increase (Oct 3/4; up to 2 weeks): less expression activation
